Experimental data reported in paper PMC4510645, “Discovery of intramolecular trans-sialidases in human gut microbiota suggests novel mechanisms of mucosal adaptation” (Nature Communications, 2015).
“Also recorded” adds a separate entry of the source.

Key:
RgNanH [1] = biological target: T1, RgNanH (Mediterraneibacter gnavus (Ruminococcus gnavus), UniProt A7B557); test: Hydrolysis of sialic acid from glycoproteins monitored by 1H NMR; type: biochemical, Ruminococcus gnavus ATCC 29149; conditions: glycoprotein 1 mg ml^−1, 1 nM enzyme, 37 °C, pH 6.5, overnight
T1 sequence (A7B557 26-723): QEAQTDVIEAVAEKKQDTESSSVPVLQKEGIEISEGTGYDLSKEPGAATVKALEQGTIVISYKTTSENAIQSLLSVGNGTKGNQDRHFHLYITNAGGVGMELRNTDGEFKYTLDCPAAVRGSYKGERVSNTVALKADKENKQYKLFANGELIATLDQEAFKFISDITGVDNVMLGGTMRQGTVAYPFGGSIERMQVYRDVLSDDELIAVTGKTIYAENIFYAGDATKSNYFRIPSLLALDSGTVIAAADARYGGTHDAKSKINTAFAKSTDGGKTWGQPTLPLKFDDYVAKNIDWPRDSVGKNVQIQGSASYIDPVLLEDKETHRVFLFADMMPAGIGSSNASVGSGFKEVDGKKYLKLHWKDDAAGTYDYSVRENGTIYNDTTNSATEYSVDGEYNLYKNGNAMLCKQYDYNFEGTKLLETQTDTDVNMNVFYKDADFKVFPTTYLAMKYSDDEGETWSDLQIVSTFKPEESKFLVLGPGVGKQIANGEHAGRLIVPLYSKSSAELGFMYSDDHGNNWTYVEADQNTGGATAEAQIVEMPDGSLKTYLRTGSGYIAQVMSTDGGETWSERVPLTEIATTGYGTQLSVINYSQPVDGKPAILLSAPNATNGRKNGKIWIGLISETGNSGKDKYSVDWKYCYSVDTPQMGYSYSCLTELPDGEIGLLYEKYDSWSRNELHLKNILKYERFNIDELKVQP
Description: The ability of RgNanH to hydrolyse sialic acid from glycoproteins was investigated by incubation of the enzyme with human α-1-acid glycoprotein (AGP) and fetuin (Fet) both of which are known to contain α2-3 sialyl linkages, while asialo-Fet was also included as a control.
(§1) For specificity tests against sialylated oligosaccharides (1 mM) and glycoproteins (1 mg ml^−1), 1 nM of enzyme was incubated with the substrate at 37 °C, pH 6.5, overnight.
Extracts (400 μl) were mixed with 200 μl of D2O and 20 μl of a solution of D2O containing 1 mM of TSP (sodium 3-(trimethylsilyl)-propionate-d4). Samples (500 μl) were transferred into a 5-mm NMR tube for spectral acquisition. The ^1H NMR spectra were recorded at 600 MHz on a Bruker Avance spectrometer (Bruker BioSpin GmbH, Rheinstetten, Germany) running Topspin 2.0 software, and were fitted with a cryoprobe and a 60-slot autosampler. Each ^1H NMR spectrum was acquired with 128 scans, a spectral width of 8,012.8 Hz, an acquisition time of 2.04 s and a relaxation delay of 2.0 s. The ‘noesypr1d' presaturation sequence was used to suppress the residual water signal with a low-power selective irradiation at the water frequency during the recycle delay and a mixing time of 100 ms. Spectra were transformed with a 0.3-Hz line broadening, manually phased, baseline corrected and referenced by setting the TSP methyl signal to 0 p.p.m.

RgNanH [2] = biological target: T1, RgNanH; test: Kinetic parameters of RgNanH with sialylated substrates; type: biochemical, Ruminococcus gnavus ATCC 29149; conditions: pH 6.5, 37 °C
Description: (§2) The purified enzymes were incubated with the substrate in buffer made from 20 mM Na2HPO4 and 20 mM NaH2PO4 adjusted to pH 6.5 containing 1 mg ml^−1 BSA at 37 °C unless otherwise stated. For 4MU-Neu5Ac, the progression of the reaction was monitored by the release of the MU using a 96-well plate reader (BMG Labtech, Ortenberg, Germany) using fluorescence with an excitation at 340 nm and an emission at 420 nm. For determining the optimal temperature, the assay was carried out in 20 mM PBS at pH 7.4. For determining the optimal pH, the assay was carried out at 37 °C using buffer made from 20 mM Na2HPO4 and 20 mM NaH2PO4 in varying proportions to obtain the desired pH. PNP release from PNP-Neu5Ac was monitored in a similar way measuring absorbance at 405 nm every 60 s. For 3′SL, the reaction was monitored by HPAEC-PAD. An aliquot of the reaction was removed from the main reaction volume at the reaction stopped by boiling for 20 min, the enzyme was then removed by centrifugation at 17,000g for 10 min and filtration with a 0.2-μm filter (Millipore, Billerica, USA). The sugars were separated by HPAEC with an isocratic gradient of 100 mM NaOH and 100 mM NaAC at 1 ml min^−1 on a CarboPac PA1 protected with a guard column and detected using PAD on a Dionex ICS5000 system (Thermo Scientific, Hemel Hempstead, UK). The column was cleaned with 10 ml of 500 mM NaOH and 500 mM NaAc, and the column was re-equilibrated with 100 mM NaOH and 100 mM NaAc. An internal standard of fucose was used to quantify the results.
For 4MU-Neu5Ac and 3′SL, the rate of hydrolysis without enzyme was not significant, thus raw data were used. However, for pNP-Neu5Ac, the rate of hydrolysis without enzyme was significant, thus the rate with enzyme was corrected by the subtraction of the rate without enzyme at each concentration of substrate. For 3′SL, the rate of reaction was calculated by plotting the amount of substrate remaining over the course of >50 % of the reaction using the following equation[58]: […]
Where k is kcat/KM × enzyme concentration, t is time, [S0] and [St] are substrate concentrations at time 0 and t, respectively.
Kinetic data were obtained from at least duplicate (usually triplicate) experiments, and the kinetic parameters were calculated by fitting the initial raw data to the Michaelis–Menten equation using a nonlinear regression analysis programme (Prism 6, GraphPad, San Diego, USA), and error bars (s.e.m.) are shown.

RgNanH [3] = biological target: T1, RgNanH; test: Specificity against sialyl-oligosaccharides, HPAEC-PAD; type: biochemical, Ruminococcus gnavus ATCC 29149; set-up: key to Activity RgNanH: +: Activity was defined as disappearance of the substrate peak and appearance of a lower-molecular weight peak, which could correspond to the desialylated substrate; conditions: 37 °C
Description: (§3) Figure 2 Specificity of RgNanH towards sialylated oligosaccharides. The enzymes were incubated with sialylated substrates at 37 °C, pH 6.5, overnight and the reaction products were analysed by HPAEC-PAD. Control reactions without enzyme were also performed. The injection peak is marked (inj). Glycerol (gly) was also present in AkmNan0625. (a) Standards (Lac, Neu5Ac, 3′SL and 6′SL), (b) 3′SL, (c) 6′SL and (d) 3'-α-sialyl-N-acetyllactosamine (3′SLacNAc). AkmNan1835 has a similar profile to […].
as §2, §1

R. gnavus ATCC 29149 = tested on: R. gnavus ATCC 29149; set-up: method as in PMID 24204617; conditions: R. gnavus ATCC 29149; cited from earlier work
[4] = tested on: AkmNan0625 and AkmNan1835; test: Specificity against sialyl-oligosaccharides, HPAEC-PAD (control sialidases); type: biochemical, Akkermansia muciniphila; set-up: key to Activity AkmNan0625 and AkmNan1835: +: Activity was defined as disappearance of the substrate peak and appearance of a lower-molecular weight peak, which could correspond to the desialylated substrate; conditions: 37 °C; for activity of AkmNan0625 and AkmNan1835 on substrate (in words): pH 6.5; for Activity AkmNan0625 and AkmNan1835: substrate 1 mM, 1 nM enzyme, pH 6.5, overnight
Description: as §3
All chemicals were obtained from Sigma (St Louis, USA) unless otherwise stated. The A. muciniphila sialidases, termed here AkmNan0625 and AkmNan1835, were obtained by His-Tag overexpression of their genes (Amuc_0625 and Amuc_1835, respectively)[56] in E. coli BL21(DE3) and subsequent purification to homogeneity by immobilized metal affinity chromatography as described below. The sialylated oligosaccharides and OC were obtained from Carbosynth (Berks, UK).
as §2, §1

| Substance | activity of RgNanH against glycoprotein (2,7-anhydro-Neu5Ac peaks by 1H NMR) (RgNanH [1]) | ability of the bacteria to grow on the substrate (R. gnavus ATCC 29149) | activity of AkmNan0625 and AkmNan1835 on substrate (in words) [4] | Activity AkmNan0625 and AkmNan1835 [4] | also measured |
| --- | --- | --- | --- | --- | --- |
| Fet: fetuin, glycoprotein known to contain α2-3 sialyl linkages | showed activity; also recorded: substrates |  |  |  |  |
| Neu5Ac-α-2-3-Gal-β-1-4-Glc [3′SL] |  | grow | active | + | Ki (RgNanH [2]; substrate inhibition, s.e.m.): 760 ± 230 µM; kcat (RgNanH [2]; substrate of RgNanH): 0.4283 s⁻¹; KM (RgNanH [2]; substrate of RgNanH, s.e.m.): below detection limit; Km (RgNanH [2]; substrate of RgNanH, s.e.m.): < 100 µM; Vmax (RgNanH [2]; substrate of RgNanH, s.e.m.): 0.0566 ± 0.0057 µM/min; Activity RgNanH (RgNanH [3]; substrate 1 mM, 1 nM enzyme, pH 6.5, overnight): + |
| Neu5Ac-α-2-6-Gal-β1-4-Glc [6′SL] |  | not | active | + | enzymatic activity of RgNanH on substrate (in words) (RgNanH [3]; pH 6.5): no enzymatic activity |
| asialo-Fet: asialo-fetuin, included as a control | no change |  |  |  |  |
